# Results taken from patent publication US10975081B2, “Substituted fused pyrazole compounds and their use as LRRK2 inhibitors” (GlaxoSmithKline Intellectual Property Development Limited, priority 2015, dated 2021).
# Where a name gives a salt, the structure may show the parent alone.
# Assays:
# [1] = biological target: Truncated G2019 human LRRK2 (1326-2527) (Homo sapiens (Human), UniProt Q5S007); test: Truncated G2019 human LRRK2 (1326-2527) inhibition mass spectrometry assay; format: biochemical; settings: 6HIS-Tev-LRRK2 (1326-2527), 25 uM LRRKtide, 20 uM ATP; for IC50: read-out: Truncated G2019 human LRRK2 inhibition mass spectrometry assay (pIC50) (converted)
# Text: 1) Truncated G2019 Human LRRK2 (1326-2527) Inhibition Mass Spectrometry Assay
# A LRRK2 cDNA encoding residues 1326-2527 was received from Dundee University (described in M. Jaleel et al., 2007, Biochem J, 405: 407-417). This gene fragment was subcloned into pFB-HTb (Invitrogen) using BamHI and NotI restriction sites. The LRRK2 plasmid was recombined into the baculovirus genome according to the BAC-to-BAC protocol described by Invitrogen. Transfection into Spodoptera frugiperda (Sf9) insect cells was performed using Cellfectin (Invitrogen), according to the manufacturer's protocol to generate P1 and P2 baculovirus stocks.
# Sf9 cells were grown in HyClone SFX (Thermo Scientific) growth media at 27° C., 80 rpm in shake flask until of a sufficient volume to inoculate a bioreactor. The cells were grown in a 20 litre working volume Wave bioreactor (GE Healthcare) at 27° C., 50% dissolved oxygen and an agitation rate 22 rocks per minute, 10 degree rock angle, 200 ml/min air with a cell concentration of approximately 6xe6 cells/ml. The cells were infected with P2 Baculovirus at a multiplicity of infection (MOI) of 3. The cultivation was continued for a 48 hour expression phase. The infected cells were removed from the growth media by centrifugation at 2500 g using a Sorvall RC 3C Plus centrifuge at 2500 g for 20 minutes. The cell pellet was immediately frozen and subsequently supplied for purification.
# A 260 g pellet was allowed to thaw in a water bath at 27° C. with 800 ml lysis buffer/buffer A (50 mm Tris-HCl pH 8.5, 300 mM NaCl, 1 mm DTT, 10% glycerol, 1 ml/L Calbiochem complete protease inhibitor cocktail and benzonase (50 ul/800 ml)) before being dounce homogenised on ice using 20 strokes per 100 ml. The suspension was packed in ice and sonicated at 50% amplitude for 3 min 10 sec on/off using a ¾″ probe. The suspension was then centrifuged at 100,000 g for 90 min, at 4° C.
# The lysate (700 ml) was decanted from the insoluble pellet and contacted for 3h at 4° C. with 10 ml His bind Ni NTA resin by end over end mixing. The resin was recovered by centrifugation, 3000 g, 5 min at 4° C., and packed in an XK16 column. The column was then washed with 10 column volumes buffer A, 10 column volumes buffer B (buffer A+1M NaCl) and 10 column volumes buffer C (buffer A+20 mM imidazole). The column was then eluted with 15 column volumes buffer D (buffer A+300 mM imidazole) collecting 2 ml fractions. All washes and elution were conducted at 4 ml/min.
# Fractions identified by SDS-PAGE as containing protein of interest were pooled and loaded directly onto a 320 ml SEC Superdex 200 pg column that was pre-equilibrated with buffer E (50 mM Tris-HCl pH 8.5, 300 mM NaCl, 10% glycerol, 1 mM DTT). The column was loaded and eluted with 1.2 column volumes buffer E at 2 ml/min collecting 2 ml fractions. Fractions identified by SDS-PAGE as containing protein of interest were tested for activity.
# Production of LRRKtide for LRRK2 Inhibition Mass Spectrometry Assay
# The ‘LRRKtide’ peptide (SEQ ID NO. 10) was synthesized as follows. The protected peptide was assembled on a solid-phase synthesiser using preloaded Wang resin and utilising standard Fmoc synthesis protocols. The crude peptide was obtained after cleavage from the resin with a mixture of trifluoroacetic acid (TFA), triisopropylsilane and water (95:2.5:2.5) for 3 hours at room temperature and was then purified using a C18 reverse-phase column utilising a 0.1% TFA-buffered water/acetonitrile gradient. The resulting fractions were analysed and fractions which were >95% pure by analytical HPLC and giving the correct molecular weight (mw) (by MALDiTOF mass spectroscopy) were pooled and freeze dried. The final material was analysed by HPLC and MALDiTOF mass spectroscopy.
# Truncated G2019 Human LRRK2 (1326-2527) Inhibition Mass Spectrometry Assay […]
# [2] = biological target: LRRK2 Ser935 phosphorylation in SH-SY5Y cells over-expressing recombinant full length LRRK2 (Homo sapiens (Human), UniProt Q5S007); test: Recombinant cellular LRRK2 AlphaScreen assay; format: cell-based; settings: 60 minutes, read-out: Recombinant cellular LRRK2 alphaScreen assay (pIC50) (converted)
# Text: To determine the activity of compounds against LRRK2 kinase activity in cells, the observed LRRK2 kinase-dependent modulation of LRRK2 Ser 935 phosphorylation (Dzamko et al., 2010, Biochem. J. 430: 405-413) was utilized to develop a quantitative 384 well plate-based immunoassay of LRRK2 Ser935 phosphorylation in the human neuroblastoma cell line SH-SY5Y, engineered to over-express recombinant full length LRRK2 protein.
# A BacMam virus expressing full length recombinant LRRK2 was purchased from Invitrogen and amplified by inoculation of SF-9 cells at MOI 0.3 for 4-5 days in Sf-900 III SFM medium supplemented with 3% fetal bovine serum. Infected cell cultures were then centrifuged at 2000 g for 20 minutes, viral supernatant titer determined by anti-gp64 plaque assay and stored at 4° C.
# Affinity-purified anti-phospho LRRK2 Ser935 sheep polyclonal antibody (Dzamko et al., 2010, Biochem. J. 430: 405-413) was biotinylated by standard methods (PerkinElmer). Anti-LRRK2 rabbit polyclonal antibody was purchased from Novus Biologicals. AlphaScreen Protein A IgG Kit (including acceptor and donor beads) was purchased from Perkin Elmer.
# SH-SY5Y cells were grown in DMEM/F12 medium with 10% dialysed fetal bovine serum and harvested by treatment with 0.5% trypsin-EDTA for 5 minutes at 37° C. followed by centrifugation at 1000 rpm for 4 minutes. The cell pellet was resuspended in Opti-MEM reduced serum media (Invitrogen) at 200,000 cells/ml and mixed with the BacMam LRRK2 virus at M01=50. 50 μl cell solutions were then dispensed to each well of a 384-well plate and incubated at 37° C., 5% CO2 for 24 hours.
# Serial dilutions of test compounds were prepared in Opti-MEM reduced serum media (Invitrogen) and 5.6 ul transferred from compound plate to cell assay plate to achieve a top final assay concentration of 10 uM. DMSO was used in certain wells as controls. Cells were incubated at 37° C., 5% CO2 for 60 minutes. The medium was then removed and cells lysed by addition of 20 ul cell lysis buffer (Cell Signaling Technology) and incubation at 4° C. for 20 minutes. 10 ul of antibody/acceptor bead mix [( 1/1000 biotinylated-pS935 LRRK2 antibody, 1/1000 total-LRRK2 antibody, 1/100 Acceptor beads in AlphaScreen detection buffer (25 mM Hepes (pH 7.4), 0.5% Triton X-100, 1 mg/ml Dextran 500 and 0.1% BSA)] was then added to each well and plates incubated for 2 hours at ambient temperature in the dark. 10 μl of donor beads solution (1/33.3 donor beads in AlphaScreen detection buffer) was then added to each well. Following incubation for a further 2 hours at ambient temperature in the dark, plates were read on an EnVision™ plate reader at emission 520-620 nm with excitation 680 nm. Dose response curve data was based on sigmoidal dose-response model.
# LRRK2 Ser935 phosphorylation in SH-SY5Y cells over-expressing recombinant full length LRRK2, sequence (Q5S007 whole entry): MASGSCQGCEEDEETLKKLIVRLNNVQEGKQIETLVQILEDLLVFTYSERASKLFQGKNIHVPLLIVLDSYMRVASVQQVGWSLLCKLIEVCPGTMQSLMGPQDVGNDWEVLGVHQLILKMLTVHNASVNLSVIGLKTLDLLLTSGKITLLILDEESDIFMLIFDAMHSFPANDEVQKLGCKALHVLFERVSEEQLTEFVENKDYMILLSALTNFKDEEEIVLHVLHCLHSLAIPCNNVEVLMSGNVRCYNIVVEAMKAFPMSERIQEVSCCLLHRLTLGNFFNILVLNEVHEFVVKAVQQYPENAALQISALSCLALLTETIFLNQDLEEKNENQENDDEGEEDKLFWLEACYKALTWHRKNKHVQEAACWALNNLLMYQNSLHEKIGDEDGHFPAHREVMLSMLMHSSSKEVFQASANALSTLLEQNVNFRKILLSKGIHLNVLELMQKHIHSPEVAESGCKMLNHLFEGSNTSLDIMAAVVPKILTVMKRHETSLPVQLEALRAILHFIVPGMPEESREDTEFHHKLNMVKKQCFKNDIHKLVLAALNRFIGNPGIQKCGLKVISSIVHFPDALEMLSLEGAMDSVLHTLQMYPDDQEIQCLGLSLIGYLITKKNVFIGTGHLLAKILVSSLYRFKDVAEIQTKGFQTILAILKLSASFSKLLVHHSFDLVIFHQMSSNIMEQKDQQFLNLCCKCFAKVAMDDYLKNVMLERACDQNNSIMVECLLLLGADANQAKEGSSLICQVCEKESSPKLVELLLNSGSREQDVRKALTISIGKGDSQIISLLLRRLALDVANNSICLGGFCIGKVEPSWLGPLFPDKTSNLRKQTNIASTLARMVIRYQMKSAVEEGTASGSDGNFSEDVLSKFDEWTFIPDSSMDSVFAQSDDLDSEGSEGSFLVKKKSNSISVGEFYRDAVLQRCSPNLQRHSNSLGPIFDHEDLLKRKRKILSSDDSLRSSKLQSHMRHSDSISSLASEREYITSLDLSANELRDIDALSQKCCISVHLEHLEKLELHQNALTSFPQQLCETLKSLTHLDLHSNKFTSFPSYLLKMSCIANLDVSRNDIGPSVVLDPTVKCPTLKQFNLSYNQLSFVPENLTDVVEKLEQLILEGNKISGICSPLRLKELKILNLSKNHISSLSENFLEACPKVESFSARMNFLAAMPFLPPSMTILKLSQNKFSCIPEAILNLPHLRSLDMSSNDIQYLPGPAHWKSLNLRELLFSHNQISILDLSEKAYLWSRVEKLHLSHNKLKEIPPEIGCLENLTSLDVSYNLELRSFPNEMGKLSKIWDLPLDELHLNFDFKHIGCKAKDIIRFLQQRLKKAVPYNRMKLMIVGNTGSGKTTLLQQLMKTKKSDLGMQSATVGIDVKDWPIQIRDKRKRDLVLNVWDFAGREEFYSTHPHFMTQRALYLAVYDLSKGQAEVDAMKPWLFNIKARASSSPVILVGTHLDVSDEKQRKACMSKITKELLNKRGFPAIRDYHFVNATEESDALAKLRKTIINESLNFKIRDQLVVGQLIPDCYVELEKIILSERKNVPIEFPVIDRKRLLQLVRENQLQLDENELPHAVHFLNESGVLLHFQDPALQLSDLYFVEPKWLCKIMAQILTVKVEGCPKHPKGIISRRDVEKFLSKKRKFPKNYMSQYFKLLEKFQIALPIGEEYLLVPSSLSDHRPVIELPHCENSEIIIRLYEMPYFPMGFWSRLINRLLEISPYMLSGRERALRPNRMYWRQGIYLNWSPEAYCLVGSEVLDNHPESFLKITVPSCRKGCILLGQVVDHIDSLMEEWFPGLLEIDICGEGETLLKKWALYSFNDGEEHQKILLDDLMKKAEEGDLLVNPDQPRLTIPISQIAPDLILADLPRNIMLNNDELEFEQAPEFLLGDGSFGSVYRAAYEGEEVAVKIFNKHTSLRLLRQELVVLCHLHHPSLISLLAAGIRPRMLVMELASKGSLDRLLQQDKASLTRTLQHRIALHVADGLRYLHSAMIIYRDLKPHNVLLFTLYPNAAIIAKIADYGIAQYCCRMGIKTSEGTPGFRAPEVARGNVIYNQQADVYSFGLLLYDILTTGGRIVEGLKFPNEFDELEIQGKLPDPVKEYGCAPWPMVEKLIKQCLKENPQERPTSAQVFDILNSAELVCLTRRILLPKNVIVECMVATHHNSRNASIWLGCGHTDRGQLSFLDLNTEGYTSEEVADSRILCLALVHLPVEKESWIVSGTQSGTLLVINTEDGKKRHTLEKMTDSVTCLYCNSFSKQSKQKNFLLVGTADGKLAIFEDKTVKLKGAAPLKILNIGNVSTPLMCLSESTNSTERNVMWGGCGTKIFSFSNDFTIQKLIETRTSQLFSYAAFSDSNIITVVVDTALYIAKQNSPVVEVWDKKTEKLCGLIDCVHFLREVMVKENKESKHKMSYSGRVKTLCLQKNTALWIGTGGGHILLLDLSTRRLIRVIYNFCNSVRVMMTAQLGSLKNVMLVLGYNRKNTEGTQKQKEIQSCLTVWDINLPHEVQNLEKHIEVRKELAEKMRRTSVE
# Truncated G2019 human LRRK2 (1326-2527), sequence (Q5S007 1326-2527): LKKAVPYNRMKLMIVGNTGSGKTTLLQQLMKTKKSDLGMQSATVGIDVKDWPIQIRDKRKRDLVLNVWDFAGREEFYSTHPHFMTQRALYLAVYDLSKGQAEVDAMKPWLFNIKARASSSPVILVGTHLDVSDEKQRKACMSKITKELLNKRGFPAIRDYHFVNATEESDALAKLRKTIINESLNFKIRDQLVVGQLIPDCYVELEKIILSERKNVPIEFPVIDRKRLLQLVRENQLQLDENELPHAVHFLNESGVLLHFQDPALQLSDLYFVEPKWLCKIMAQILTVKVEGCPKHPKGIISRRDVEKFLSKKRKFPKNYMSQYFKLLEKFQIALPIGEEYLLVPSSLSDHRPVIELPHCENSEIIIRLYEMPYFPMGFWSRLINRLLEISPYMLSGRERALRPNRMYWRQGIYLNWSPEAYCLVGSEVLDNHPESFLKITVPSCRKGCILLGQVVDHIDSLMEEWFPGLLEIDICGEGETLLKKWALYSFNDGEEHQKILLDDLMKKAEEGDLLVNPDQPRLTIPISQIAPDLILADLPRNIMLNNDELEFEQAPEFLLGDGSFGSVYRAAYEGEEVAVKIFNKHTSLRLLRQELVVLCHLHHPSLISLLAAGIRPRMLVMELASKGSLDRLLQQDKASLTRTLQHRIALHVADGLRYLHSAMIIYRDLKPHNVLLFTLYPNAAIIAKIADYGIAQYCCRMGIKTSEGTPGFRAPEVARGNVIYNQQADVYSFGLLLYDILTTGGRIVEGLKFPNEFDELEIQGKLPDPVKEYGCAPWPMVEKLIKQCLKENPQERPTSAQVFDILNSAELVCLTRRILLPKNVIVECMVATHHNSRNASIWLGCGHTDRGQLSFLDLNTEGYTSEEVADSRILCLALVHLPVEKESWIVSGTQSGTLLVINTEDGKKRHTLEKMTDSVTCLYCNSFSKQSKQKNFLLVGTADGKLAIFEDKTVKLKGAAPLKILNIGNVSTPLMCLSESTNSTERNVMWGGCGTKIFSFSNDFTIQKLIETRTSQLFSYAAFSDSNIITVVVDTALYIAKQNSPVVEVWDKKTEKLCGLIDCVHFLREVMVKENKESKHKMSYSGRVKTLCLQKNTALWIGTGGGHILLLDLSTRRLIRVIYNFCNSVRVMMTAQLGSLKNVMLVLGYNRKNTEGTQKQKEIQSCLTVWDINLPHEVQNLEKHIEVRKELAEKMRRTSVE
Structure (SMILES),IC50 [1] [µM],IC50 [2] [µM],Truncated G2019 human LRRK2 inhibition mass spectrometry assay (pIC50) [1]
"COc1nc(N2CCOCC2)cc(-n2ncc3cc(C)c(C4CCN(C5COC5)CC4(F)F)cc32)n1 (single isomer, unassigned) [Example E22, 4-(6-(6-(3,3-Difluoro-1-(oxetan-3-yl)piperidin-4-yl)-5-methyl-1H-indazol-1-yl)-2-methoxypyrimidin-4-yl)morpholine]",0.00794,0.0126,–
"COc1nc(N2CCOCC2)cc(-n2ncc3cc(C)c(C4CCN(C)CC4(F)F)cc32)n1 (single isomer, unassigned) [Example E4, 4-(6-(6-(3,3-Difluoro-1-methylpiperidin-4-yl)-5-methyl-1H-indazol-1-yl)-2-methoxypyrimidin-4-yl)morpholine]",0.00794,0.0251,–
"COc1nc(N2CCOCC2)cc(-n2ncc3cc(C)c([C@H]4CCNC[C@H]4F)cc32)n1 (single isomer, unassigned) [Example E62, (cis)-4-(6-(6-(3-Fluoropiperidin-4-yl)-5-methyl-1H-indazol-1-yl)-2-methoxypyrimidin-4-yl)morpholine hydrochloride]",0.00794,0.0501,–
"Cc1nc(N2CC(O)C2)cc(-n2ncc3cc(C)c(C4CCN(C)CC4F)cc32)n1 (single isomer, unassigned) [Example E40, (cis)-1-(6-(6-(3-Fluoro-1-methylpiperidin-4-yl)-5-methyl-1H-indazol-1-yl)-2-methylpyrimidin-4-yl)azetidin-3-ol]",0.0126,0.0501,–
"COc1nc(N2CC(O)C2)cc(-n2ncc3cc(C)c(C4CCN(C)CC4F)cc32)n1 (single isomer, unassigned) [Example E38, (cis)-1-(6-(6-(3-Fluoro-1-methylpiperidin-4-yl)-5-methyl-1H-indazol-1-yl)-2-methoxypyrimidin-4-yl)azetidin-3-ol]",–,0.0316,8
"Cc1cc2cnn(-c3cc(N4CC(O)C4)nc(OC(F)F)n3)c2cc1C1CCN(C)CC1F (single isomer, unassigned) [Example E48, (cis)-1-(2-(Difluoromethoxy)-6-(6-(3-fluoro-1-methylpiperidin-4-yl)-5-methyl-1H-indazol-1-yl)pyrimidin-4-yl)azetidin-3-ol]",≤ 10,–,–
"Cc1nc(N2CC(O)C2)cc(-n2ncc3cc(C)c(C4CCN(C)CC4F)cc32)n1 (single isomer, unassigned) [Example E41, (cis)-1-(6-(6-(3-Fluoro-1-methylpiperidin-4-yl)-5-methyl-1H-indazol-1-yl)-2-methylpyrimidin-4-yl)azetidin-3-ol]",–,0.126,7.9
"CNC(=O)[C@H]1CN(c2cc(-n3ncc4cc(C)c(C5CCN(C)CC5(F)F)cc43)nc(OC)n2)CCO1 (single isomer, unassigned) [Example E18]",0.0126,0.0126,–
"COc1nc(N2CC(O)C2)cc(-n2ncc3cc(C)c(C4CCN(C)CC4F)cc32)n1 (single isomer, unassigned) [Example E39, (cis)-1-(6-(6-(3-Fluoro-1-methylpiperidin-4-yl)-5-methyl-1H-indazol-1-yl)-2-methoxypyrimidin-4-yl)azetidin-3-ol]",0.01,0.00501,–
"Cc1cc2cnn(-c3cc(N4CCOCC4)nc(OC(C)C)n3)c2cc1C1CCN(C)CC1(F)F (single isomer, unassigned) [Example E7, 4-(6-(6-(3,3-Difluoro-1-methylpiperidin-4-yl)-5-methyl-1H-indazol-1-yl)-2-isopropoxypyrimidin-4-yl)morpholine]",–,> 10,–

# Now from value to compound:
IC50 [1] [µM],IC50 [2] [µM],Truncated G2019 human LRRK2 inhibition mass spectrometry assay (pIC50) [1],Structure (SMILES)
0.0126,0.01,–,"COc1nc(N2CC(O)C2)cc(-n2ncc3cc(C)c(C4CCN(C5COC5)CC4)cc32)n1 [Example E79, 1-(2-Methoxy-6-(5-methyl-6-(1-(oxetan-3-yl)piperidin-4-yl)-1H-indazol-1-yl)pyrimidin-4-yl)azetidin-3-ol]"
0.0316,0.126,–,"COc1nc(N2CC(C#N)C2)cc(-n2ncc3cc(C)c(C4CCNCC4(F)F)cc32)n1 (single isomer, unassigned) [Example E66, 1-(6-(6-(3,3-Difluoropiperidin-4-yl)-5-methyl-1H-indazol-1-yl)-2-methoxypyrimidin-4-yl)azetidine-3-carbonitrile]"
0.0251,0.631,–,"COc1nc(N2CCNCC2)cc(-n2ncc3cc(C)c(N4CCOCC4)cc32)n1 [Example E117, 4-(1-(2-Methoxy-6-(piperazin-1-yl)pyrimidin-4-yl)-5-methyl-1H-indazol-6-yl)morpholine]"
–,≤ 0.1,–,"COc1nc(N2CC(O)C(F)C2)cc(-n2ncc3cc(C)c(C4CCN(C5COC5)CC4)cc32)n1 (single isomer, unassigned) [Example E219, (trans)-4-Fluoro-1-(2-methoxy-6-(5-methyl-6-(1-(oxetan-3-yl)piperidin-4-yl)-1H-indazol-1-yl)pyrimidin-4-yl)pyrrolidin-3-ol]"
–,> 10,–,"COc1nc(N2CC(O)C2)cc(-n2ncc3cc(C)c([C@@H]4CN(C)C[C@@H]4F)cc32)n1 (single isomer, unassigned) [Example E74, (cis)-1-(6-(6-(4-Fluoro-1-methylpyrrolidin-3-yl)-5-methyl-1H-indazol-1-yl)-2-methoxypyrimidin-4-yl)azetidin-3-ol]"
